Assay results reported in patent US20140271606A1, “METHODS OF USING ADENOSINE RECEPTOR ANTAGONISTS FOR TREATING BLEEDING DISORDERS” (Bayer HealthCare LLC, priority 2013, published 2014).

Columns and labels:
[1] = tested on: Hemophilia A mice; assay: Tail cut blood loss in Hemophilia A mice; format: in vivo; details: 30 min bleeding
Method: In this Example, the effect of administering an adenosine receptor antagonist on reduction in blood loss in mice with Hemophilia A and Hemophilia B mice was analyzed. Male Hemophilia A or Hemophilia B mice, approximately eight to nine weeks of age and weighing, on average, approximately 25 grams, were used in this Example. The mice were anesthetized with isoflurane and the tails were placed in approximately 37-38° C. warmed 15-ml plastic tubes including 0.9% (by weight) saline for 10 minutes. The tails were then cut at 4 mm from the tip by scalpel and immediately placed back into separate pre-warmed (37-38° C.) 15-ml plastic tubes containing 10 ml of 0.9% (by weight) saline. Each mouse was allowed to bleed freely for 30 minutes. The adenosine 2a and 2b receptor antagonist, 4-(2-[7-Amino-2-(2-furyl)[1,2,4]triazolo[2,3-a][1,3,5]triazin-5-ylamino]ethyl)phenol (commercially available as ZM241385 from Tocris Bioscience, United Kingdom), was used in this Example. In a first sample group, ZM241385 was dissolved in 100% DMSO. In a second sample group, ZM241385 was dissolved in PEG400/ethanol/water (40/10/50 v/v/v). In a third sample group, ZM241385 was dissolved in PEG400/water (60/40 v/v). […] Blood loss was quantified gravimetrically by weighing the tubes before and after blood was collected.

[2] = tested on: Hemophilia B mice; assay: Tail cut blood loss in Hemophilia B mice; format: in vivo; details: 100 mg/kg intravenous in PEG400/water 60/40, 5 min prior to tail cut, 30 min bleeding, vs excipient (FIG. 4)
Method: In this Example, the effect of administering an adenosine receptor antagonist on reduction in blood loss in mice with Hemophilia A and Hemophilia B mice was analyzed. Male Hemophilia A or Hemophilia B mice, approximately eight to nine weeks of age and weighing, on average, approximately 25 grams, were used in this Example. The mice were anesthetized with isoflurane and the tails were placed in approximately 37-38° C. warmed 15-ml plastic tubes including 0.9% (by weight) saline for 10 minutes. The tails were then cut at 4 mm from the tip by scalpel and immediately placed back into separate pre-warmed (37-38° C.) 15-ml plastic tubes containing 10 ml of 0.9% (by weight) saline. Each mouse was allowed to bleed freely for 30 minutes. Nineteen mice having Hemophilia B were injected with the third sample of adenosine receptor antagonist solution by intravenous injection in the amount of 100 mg/kg ZM241385 five minutes prior to the tail cut. Nineteen control mice were treated with 100 μl of PEG400/water (60/40 v/v) without any adenosine receptor antagonist prior to the tail cut to serve as an untreated control. Blood loss was quantified gravimetrically by weighing the tubes before and after blood was collected.

Measured: blood loss

Nc1nc(NCCc2ccc(O)cc2)nc2nc(-c3ccco3)nn12 [ZM241385, 4-(2-[7-Amino-2-(2-furyl)[1,2,4]triazolo[2,3-a][1,3,5]triazin-5-ylamino]ethyl)phenol]
reduced blood loss: [1]; 100 mg/kg intraperitoneal in 100% DMSO, 30 min prior to tail cut, vs excipient (FIG. 2) | [1]; 300 mg/kg intraperitoneal in PEG400/ethanol/water 40/10/50, 30 min prior to tail cut, vs excipient (FIG. 3) | [2]
